Four compounds from patent publication US20210161915A1, “GABA-A ANTAGONISTS FOR TREATING SUBSTANCE […]” (ASARINA PHARMA APS, priority 2018, published 2021) can be followed below.

A word on the pEC50: it is −log10 of the EC50, conventionally taken in molar units.

Test [1] deals with T1, human alpha1,beta2,gamma2 Long GABAA receptor subtype (Homo sapiens, UniProt P14867+P47870).
T1 construct: expressed in transfected cells; host or cells: HEK-293
The test is described as follows: Patch-clamp (Dynaflow system) current response in HEK-293 cells transfected with alpha1,beta2,gamma2 Long GABAA receptor. Type of test: cell-based. The protocol:
(§1) In these tests the protocol was optimized to be similar to the physiological conditions in the synaptic cleft.
(§2) Cell culture: HEK-293 cells, permanently transfected with the human alpha1,beta,gamma and alpha4,beta,delta GABAA receptor subtypes, were seeded at a density of 3×10^4/25 cm^2 in a culture flask. The transfected cells were used for patch-clamp experiments 3 days after seeding. When using the cells for patch-clamp experiments the cells were washed twice with oxygen-bubbled extra cellular (EC) solution (see below). About 5 mL EC was then added and the cells were kept in the incubator for about 15 minutes. After 15 minutes the cells came loose from the bottom of the flask and were separated by carefully sucking a couple of times with a Pasteur pipette.
(§3) Dynaflow™ system with Resolve chip was used for patch-clamp experiments: The electrophysiological recordings from HEK-293 cells were performed under voltage-clamp conditions using patch-clamp technique and the Dynaflow™ system (Dynaflow Pro II Platform Zeiss Axiovert 25; Cellectricon AB, Sweden) with Resolve chips as application system.
(§4) Patch pipettes were pulled from borosilicate glass and polished to a resistance 2-5 MΩ when filled with suitable intracellular solution (IC) (pH was adjusted to 7.2) and immersed in bath solution (extracellular, EC) (pH is adjusted to 7.4).
(§5) The recordings were made using an Axopatch 200B amplifier, a Digidata 1322A (Axon instruments, Foster city, USA). Data were analysed using the pCLAMP software sampled at 10 kHz, filtered at 2-10 kHz and analyzed with Clampfit (versions 9.0, both from Axon instruments, Foster city, USA). No higher series resistance than 20 MΩ between pipette and cell membrane was accepted. No series resistance compensation was used. The stability of series resistance was monitored repeatedly from the time course of capacitative transients during the experiments. The measured liquid-junction potential between EC and IC was subtracted in all data presented. All experiments were performed at room temperature (21-23° C.).
(§6) All steroids were dissolved to the concentration of 6 mM in DMSO. […] End solutions were the solutions added into the wells of the chip.
(§7) Electrophysiology: After compensating for the liquid junction potential a steady holding potential of −17 mV was used in all experiments. […] By using the holding potential of −17 mV and the intracellular solution with low chloride ion concentration the chloride ions flux into the cell when the receptors were activated.
The Dynaflow system allowed application of solutions for as short as 40 ms up to minutes in time.
In the experiments, THDOC and 3alpha-OH-adiol were used as the positive GABAA receptor modulating steroids.
(§8) Different incubation times were studied to achieve the optimal time for attaining stable results and minimize the washout time.
Study design: Studies were conducted on current response mediated by chloride ion flux through the GABAA receptor. […] The same patch-clamp technique was used as described above (Example 1) using the Dynaflow™ application system. THDOC was used as positive GABAA receptor modulating steroid as it has shorter washout time compared to allopregnanolone but works with the same mechanisms on the same GABAA receptor binding site as allopregnanolone.
HEK-293 cells, permanently transfected with cDNA expressing the human alpha1,beta2,gamma2 Long GABAA receptor subtype. The tissue culture and the handling of the cells were as described in Example 1. In the patch-clamp experiments the transfected cells were used minimum two passages after defrosting and 3 days after seeding. The cells were seeded for maximal 25 times.

The target of test [2] is T2, human alpha4,beta,delta GABAA receptor subtype (Homo sapiens, UniProt P28472+P48169).
T2 construct: expressed in transfected cells; host or cells: HEK-293
The test is described as follows: Patch-clamp (Dynaflow system) current response in HEK-293 cells transfected with alpha4,beta3,delta GABAA receptor. Type of test: cell-based. The protocol:
as §1, §2, §3, §4, §5, §6, §7
The Dynaflow system allowed application of solutions for as short as 40 ms up to minutes in time. […] There was no difference in response between the second and the third GABA application. Therefore, the first GABA application was always repeated twice and the second response was used in the analysis.
Washout: GABA is quite soluble in water and easy to washout from the receptor. […] Steroids on the other hand were difficult to dissolve in water and also difficult to washout from the receptor. In the experiments, THDOC and 3alpha-OH-adiol were used as the positive GABAA receptor modulating steroids. With 2 minutes washout time, 200 nM THDOC and 3alpha-OH-adiol was completely washed out as shown by neither an accumulative nor a desensitization effect.
as §8
A general note: Patch clamp records ionic current or voltage across a cell membrane.

Another test deals with female Wistar rats. The test is described as follows: Allopregnanolone-induced loss of righting reflex (LoR) test. Type of test: in vivo, rat. To be noted: for Animals (%) not showing LoR after allopregnanolone injection: allopregnanolone 2 mg/kg i.v. The protocol:
The compound by 3beta-fluor-5alpha-pregnan-20-one (UC2016) was analyzed for antagonism of the allopregnanolone-induced loss of righting reflex (LoR) in female Wistar rats.
Study design: Allopregnanolone was dissolved 2 mg/ml in 10% 2-hydroxy-beta-cyclodextrin (beta-CD), with the use of ultra sound. 3beta-fluor-5alpha-pregnan-20-one (UC2016) dissolved in MCT (10 mg/ml) was injected s.c. 30 and 60 minutes before i.v. 2 mg/kg allopregnanolone. UC2016, in different concentrations (1-20 mg/kg) were given s.c. 30 or 60 minutes before the acute i.v. allopregnanolone-induced LoR. To study if MCT oil alone interferes with the acute i.v. allopregnanolone-induced LoR, MCT oil was given s.c. 30 or 60 min before the allopregnanolone injection. Doses given were from 1 mg/kg to 20 mg/kg UC2016 s.c.
Animals: Female Wistar rats (n=12) from Taconics, Denmark were used. At arrival rats weighted 250 g. For identification the rats were marked with numbers on their tail with a permanent marker. The animals were housed four in each cage for 6 weeks and thereafter two in each cage at the Umea Centre for Comparative Biology (UCCB) animal facility at Umea University, where also all experiments took place. Housing room temperature was kept at 22-23° C. Lights on and off were monitored 12/12 h light/dark; lights on at 06.00 and off at 18.00. Food and water was available ad libitum. The study protocol was approved by the Regional Ethics Committee of Umeå, Sweden.
Handling: To avoid stress during the experimental session, animals were daily handled the week before testing. Handling included moments used during the test, i.e. holding, tail warming in water, and wrapping in op-blanket.
Solutions: Allopregnanolone (Umecrine AB, batch L00019654), was dissolved in 10% or 30% 2-hydroxypropyl-β-cyclodextrin (HPβ-CD; Sigma, H-107) with the use of ultra sound. MCT oil and Solution of UC2016; 10 mg/ml in MCT oil, were provided by XSpray Microparticles AB (Stockholm).
Allopregnanolone-induced loss of righting reflex (LoR) test: During testing, the rat was weighted, the tail was warmed in water (43° C.) for three minutes, and the rat was wrapped in an op-blanket and hold for injection. The test solution was injected i.v. in one of the tail veins during 30 s (optimal injection rate for allopregnanolone, 4 mg/kg/min, Zhu et al 2001), and the needle then kept in place for additional 30 s. The time point for the end of the actual injection was noted. The rat was then placed in a separate cage and LoR was tested by laying the rat on the right side. Rats with LoR stayed on side, and the time until righting was followed. Rats with no LoR could not be placed on side, as the righting reflex immediate corrected the orientation of the body so that the rat was standing on its paws. The effects of the different injections were followed by the two evaluators for approximately 10 min, and the rat was then taken back to its home cage. LoR is an early event at anesthesia, and this fact is used in the test. Allopregnanolone is a strong anesthetic substance, an agonist at the GABAA receptor, and LoR is in the test induced during the 30 seconds with the injection of the substance. At tests of possible allopregnanolone antagonists, the antagonistic effect is thus observed immediately after the injection, i.e. when the rat is placed in the test cage.

pEC50: −log10 of the molar value. Entries after “also recorded” stand apart in the source; their conditions may differ. Read-outs that look alike come from different tables or passages of the source.

T1 sequence (P14867 28-456): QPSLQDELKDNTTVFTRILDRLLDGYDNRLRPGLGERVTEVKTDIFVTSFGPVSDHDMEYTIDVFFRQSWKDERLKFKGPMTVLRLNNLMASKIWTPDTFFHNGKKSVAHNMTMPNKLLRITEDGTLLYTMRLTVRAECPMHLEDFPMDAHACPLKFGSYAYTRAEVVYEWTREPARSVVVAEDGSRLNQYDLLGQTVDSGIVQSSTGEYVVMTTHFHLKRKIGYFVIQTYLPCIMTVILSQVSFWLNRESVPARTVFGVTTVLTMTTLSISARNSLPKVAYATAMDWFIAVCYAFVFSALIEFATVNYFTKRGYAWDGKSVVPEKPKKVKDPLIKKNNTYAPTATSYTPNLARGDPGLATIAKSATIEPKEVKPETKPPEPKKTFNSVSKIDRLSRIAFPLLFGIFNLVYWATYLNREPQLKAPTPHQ
T1 sequence (P47870 25-512 limits assumed): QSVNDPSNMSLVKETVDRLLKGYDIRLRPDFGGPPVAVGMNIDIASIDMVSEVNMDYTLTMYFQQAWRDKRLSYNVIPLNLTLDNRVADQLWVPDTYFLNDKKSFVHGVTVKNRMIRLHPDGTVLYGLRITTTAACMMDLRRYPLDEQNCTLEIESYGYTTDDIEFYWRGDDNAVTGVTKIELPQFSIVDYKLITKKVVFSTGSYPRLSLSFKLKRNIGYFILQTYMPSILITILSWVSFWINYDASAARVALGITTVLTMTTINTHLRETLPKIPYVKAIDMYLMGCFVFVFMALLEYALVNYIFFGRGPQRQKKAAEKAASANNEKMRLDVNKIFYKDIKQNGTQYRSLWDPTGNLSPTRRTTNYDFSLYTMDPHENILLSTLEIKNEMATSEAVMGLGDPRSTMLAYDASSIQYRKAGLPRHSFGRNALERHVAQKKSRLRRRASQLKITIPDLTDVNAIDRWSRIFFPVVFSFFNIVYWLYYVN
T1 sequence (P18507 40-475 partner): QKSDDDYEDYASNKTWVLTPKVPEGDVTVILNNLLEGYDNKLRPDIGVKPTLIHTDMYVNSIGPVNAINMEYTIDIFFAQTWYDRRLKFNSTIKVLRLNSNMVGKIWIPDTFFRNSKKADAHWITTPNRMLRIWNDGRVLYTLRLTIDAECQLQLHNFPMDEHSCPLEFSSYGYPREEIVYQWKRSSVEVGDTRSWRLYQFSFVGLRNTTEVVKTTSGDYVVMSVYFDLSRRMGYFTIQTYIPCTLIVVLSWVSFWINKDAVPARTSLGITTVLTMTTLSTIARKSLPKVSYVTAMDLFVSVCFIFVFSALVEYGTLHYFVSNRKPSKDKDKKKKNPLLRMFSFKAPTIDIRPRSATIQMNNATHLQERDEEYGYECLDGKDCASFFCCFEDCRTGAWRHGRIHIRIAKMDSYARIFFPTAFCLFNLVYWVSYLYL
T2 sequence (P48169 36-554): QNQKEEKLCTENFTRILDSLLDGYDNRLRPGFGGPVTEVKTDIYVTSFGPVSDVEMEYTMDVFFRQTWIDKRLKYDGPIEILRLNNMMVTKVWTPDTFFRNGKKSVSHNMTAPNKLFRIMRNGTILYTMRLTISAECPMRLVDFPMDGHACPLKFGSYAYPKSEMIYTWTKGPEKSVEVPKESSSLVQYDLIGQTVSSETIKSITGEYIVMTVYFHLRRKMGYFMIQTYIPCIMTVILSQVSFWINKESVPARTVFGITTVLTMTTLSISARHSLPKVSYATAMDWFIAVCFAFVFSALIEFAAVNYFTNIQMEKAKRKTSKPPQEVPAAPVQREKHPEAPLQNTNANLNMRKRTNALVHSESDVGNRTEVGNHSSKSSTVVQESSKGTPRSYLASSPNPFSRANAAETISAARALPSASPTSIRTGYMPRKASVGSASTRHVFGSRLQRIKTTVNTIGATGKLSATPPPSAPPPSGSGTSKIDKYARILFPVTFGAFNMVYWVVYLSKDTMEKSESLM
T2 sequence (P28472 26-473): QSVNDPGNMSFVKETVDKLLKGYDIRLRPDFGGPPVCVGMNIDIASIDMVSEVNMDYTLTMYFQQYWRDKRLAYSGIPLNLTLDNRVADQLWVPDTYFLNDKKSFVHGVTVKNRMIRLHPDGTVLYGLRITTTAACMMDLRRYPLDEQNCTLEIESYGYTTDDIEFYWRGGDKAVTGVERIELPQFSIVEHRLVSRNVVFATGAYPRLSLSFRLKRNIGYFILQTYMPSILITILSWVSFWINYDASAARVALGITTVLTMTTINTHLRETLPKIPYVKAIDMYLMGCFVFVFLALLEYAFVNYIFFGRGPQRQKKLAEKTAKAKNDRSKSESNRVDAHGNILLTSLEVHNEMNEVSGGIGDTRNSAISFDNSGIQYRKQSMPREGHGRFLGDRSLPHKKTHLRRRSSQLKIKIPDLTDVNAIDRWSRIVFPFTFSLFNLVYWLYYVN
T2 sequence (O14764 17-452 partner limits assumed): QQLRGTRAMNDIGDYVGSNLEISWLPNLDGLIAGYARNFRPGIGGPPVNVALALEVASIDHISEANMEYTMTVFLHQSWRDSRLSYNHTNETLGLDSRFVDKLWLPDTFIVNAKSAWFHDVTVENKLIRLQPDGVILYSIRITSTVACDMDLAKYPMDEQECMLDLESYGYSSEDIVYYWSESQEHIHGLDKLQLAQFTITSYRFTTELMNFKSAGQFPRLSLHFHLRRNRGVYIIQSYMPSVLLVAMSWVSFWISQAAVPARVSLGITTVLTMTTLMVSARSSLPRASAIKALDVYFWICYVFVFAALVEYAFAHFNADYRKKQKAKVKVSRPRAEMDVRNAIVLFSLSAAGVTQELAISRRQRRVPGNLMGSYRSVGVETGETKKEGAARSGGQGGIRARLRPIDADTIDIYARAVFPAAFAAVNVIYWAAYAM

`C[C@]12CC[C@@H](O)C[C@H]1CC[C@@H]1[C@@H]2CC[C@]2(C)[C@@H](C(=O)CO)CC[C@@H]12` [THDOC, Tetrahydrodeoxycorticosterone, reference compound]: the Imax/Emax result in test [1] (0.03-1 μM THDOC + 30 μM GABA) is recorded as “+115%”. In test [1] (without GABA), the “THDOC induced tonic effect (baseline shift)” value was “did not induce any baseline shift”. Also, the “Emax, enhancement of GABA mediated current response” value in test [2] is 297%. In addition, the pEC50 in test [2] (read-out: EC50, enhancement of GABA mediated current response) was 7.33. In addition, in test [2] (without GABA, data not shown), the “THDOC induced baseline shift” value is given as “induces a baseline shift”.
Regarding `CC(=O)[C@H]1CC[C@H]2[C@@H]3CC[C@H]4C[C@@H](F)CC[C@]4(C)[C@H]3CC[C@]12C` [UC2016, 3beta-fluor-5alpha-pregnan-20-one], the “Antagonism of allopregnanolone induction of LoR” value with female Wistar rats (1 mg/kg s.c., 60 min before allopregnanolone) is given as “clearly antagonized”. Further, the “Inhibition of LoR induction by allopregnanolone” value was “not” with female Wistar rats (5 mg/kg s.c., 30 minutes before allopregnanolone); “had an inhibitory effect” in the test on female Wistar rats (5 mg/kg s.c., 60 minutes before allopregnanolone); “inhibited LoR induction” in the test with female Wistar rats (10 mg/kg or higher s.c., 30 min before allopregnanolone). The “Animals (%) not showing LoR after allopregnanolone injection” value with female Wistar rats (UC2016 1 mg/kg s.c. in MCT oil) was 100%; in the test with female Wistar rats (UC2016 2 mg/kg s.c. in MCT oil) it was 80%; with female Wistar rats (UC2016 10 mg/kg s.c. in MCT oil), 100%; in the test with female Wistar rats (UC2016 20 mg/kg s.c. in MCT oil), 100%. Besides, the “[UC2016] + 30 μM GABA + 200 nM THDOC, Mean ± SEM (%)” value in test [1] (0.1 μM UC2016) is −4.7 ± 3.5%; in test [1] (0.3 μM UC2016), −11.6 ± 5.5%; in test [1] (1 μM UC2016), −25.1 ± 3.5%. In addition, the “Imax/Emax, effect on GABA response” value in test [1] (1 μM UC2016 + 30 μM GABA) is listed as −8.6 ± 1.7%. Moreover, in test [1] (1 μM UC2016, absence of GABA), the “Effect of compound alone (baseline shift)” value is on record as “no effect on baseline shift; also recorded: UC2016 had no effect in absence of GABA”.
Consider `CC(=O)[C@H]1CC[C@H]2[C@@H]3CC[C@H]4C[C@H](O)CC[C@]4(C)[C@H]3CC[C@]12C` [Allopregnanolone, allopregnanolone, reference compound], for which the “Induction of LoR” value in the test with female Wistar rats (allopregnanolone 2 mg/kg i.v. alone) is given as “induces LoR in all female Wistar rats”.
For `C[C@]12CC[C@@H](O)C[C@@H]1CC[C@@H]1[C@@H]2CC[C@]2(C)C(O)CC[C@@H]12` (stereo partly drawn) [Androstanediol, 3alpha-hydroxy-5alpha-androstan-17-ol, reference compound], the pEC50 in test [1] was 5.47; in test [2], 6.42. Besides, the “Androstanediol effect without GABA” value in test [1] (data not shown) was “no effect without GABA”. Besides, the “Baseline shift, current response in absence of GABA, Mean ± SEM pA” value in test [2] (3 μM Androstanediol) is “+8 ± 3.6 pA”; in test [2] (10 μM Androstanediol), “+13 ± 4.8 pA”.
